Earlier results, collected in EP3409275B1, “COMPOSITION FOR PREVENTION AND/OR TREATMENT OF DISEASES ASSOCIATED TO HYPERALGESIA” (Neilos S.r.l., priority 2017, dated 2018).

Legend:
GPR55 orphan receptor = GPR55 orphan receptor (Homo sapiens, UniProt Q9Y2T6); settings: activation of GPR55
[1] = 2 g of curcumin with 20 mg of piperine, healthy volunteers
[2] = mice, curcumin 40 mg/kg, phenylbutazone at similar doses

GPR55 orphan receptor, sequence (Q9Y2T6 whole entry): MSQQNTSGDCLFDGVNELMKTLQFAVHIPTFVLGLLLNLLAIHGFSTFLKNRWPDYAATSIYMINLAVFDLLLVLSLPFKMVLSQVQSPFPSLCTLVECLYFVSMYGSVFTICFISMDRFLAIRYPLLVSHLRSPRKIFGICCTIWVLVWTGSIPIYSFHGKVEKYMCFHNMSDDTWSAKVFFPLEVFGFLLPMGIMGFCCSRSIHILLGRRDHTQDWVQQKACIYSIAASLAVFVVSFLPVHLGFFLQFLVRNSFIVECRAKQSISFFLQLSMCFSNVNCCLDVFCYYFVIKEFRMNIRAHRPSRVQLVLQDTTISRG

CCCCCCCCCCCCCCCC(=O)NCCO [PEA, N-(2-hydroxyethyl) hexadecanamide]
EC50 (GPR55 orphan receptor): 4 nM
removal half-life (in vivo): about 12 minutes
area under the curve of PEA plasmatic level (AUC1-8h) (oral administration): 6525 ± 1372 ng PEA min ml-1
tmax (oral administration): 15 min
maximum plasmatic concentration (Cmax) (oral administration, Wistar rats): 420 ± 132 nm

O=C(/C=C/C=C/c1ccc2c(c1)OCO2)N1CCCCC1 [piperine]
increase in oral bioavailability of curcumin [1]: 20 times

CCCCC1C(=O)N(c2ccccc2)N(c2ccccc2)C1=O [phenylbutazone]
ulcerogenic index [2]: 1.70
